Values of other authors as cited in patent US12472158B2, “Methods of treating trigeminal nerve pain” (Vanderbilt University, priority 2019, dated 2025).

Key:
[1] = test system: contraction of the nictitating membrane in cats; settings: i.v., dose giving 50% reduction of the nictitating membrane contraction
goat model = settings: for duration of antinociceptive effect: intrathecal
subarachnoid space = settings: 75 mcg in 15 μl saline, intrathecal route
α-2A adrenergic receptor = target: T1, α-2A adrenergic receptor (Homo sapiens, UniProt P08913); settings: α-2A vs α-2B and α-2C
T1 sequence (P08913 1-465): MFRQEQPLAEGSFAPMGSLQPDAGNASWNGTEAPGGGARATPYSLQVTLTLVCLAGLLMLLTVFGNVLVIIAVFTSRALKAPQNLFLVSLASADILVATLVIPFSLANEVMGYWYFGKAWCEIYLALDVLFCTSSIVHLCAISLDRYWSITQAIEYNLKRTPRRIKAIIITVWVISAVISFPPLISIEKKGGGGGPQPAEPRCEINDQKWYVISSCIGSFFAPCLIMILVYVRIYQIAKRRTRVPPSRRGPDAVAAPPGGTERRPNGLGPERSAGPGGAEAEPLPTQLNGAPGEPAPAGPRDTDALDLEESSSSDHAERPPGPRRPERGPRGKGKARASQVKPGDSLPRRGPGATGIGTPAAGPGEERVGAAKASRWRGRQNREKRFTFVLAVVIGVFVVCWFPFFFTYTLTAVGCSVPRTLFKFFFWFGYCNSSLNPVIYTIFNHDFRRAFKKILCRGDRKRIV

[2] = among the alpha-2 agonists
[3] = lidocaine alone (active control group); medical literature and expert opinion

## Cc1cccc(C)c1CC(=O)NC(=N)N [2,6-dimethylphenyl-acetyl-guanidine]
[1]
  Reduction of the neck sympathicus stimulus ED50: 1.0 mg/kg

## Clc1cccc(Cl)c1N=C1NCCN1 [clonidine]
Goat model
  duration of antinociceptive effect: 5 h
Rat model; rat model, injection 50 mcg
  time for anti-nociceptive effect to decline to baseline: ≤ 4 h

## Cl.N=C(N)NC(=O)Cc1c(Cl)cccc1Cl [guanfacine, N-amidino-2-(2,6-dichlorophenyl) acetamide]
In vivo
  elimination half-life: ~17 h
oral
  oral bioavailability: around 80%
Share of elimination
  renal excretion: ~50%
Subarachnoid space
  toxicity in the subarachnoid space: nontoxic
Goat model; compared with clonidine
  elimination from spinal cord tissue: slower elimination
Goat model
  duration of antinociceptive effect: 8 h
[1]
  Reduction of the neck sympathicus stimulus ED50: 0.3 mg/kg
α-2A adrenergic receptor
  affinity for α-2A adrenergic receptor compared to α-2B and α-2C adrenergic receptor: 15- to 20 fold
Rat model; compared to clonidine
  rate of elimination from spinal cord tissue: lower rate of elimination
Rat model; rat model, intrathecal, both 25 mcg and 50 mcg
  duration of anti-nociceptive effect: greater than 18 h
[2]
  rate of sedation: lowest rate of sedation

## CCN(CC)CC(=O)Nc1c(C)cccc1C [lidocaine]
[3]
  mean duration of pain relief: approximately 140 minutes
